ChEMBL document CHEMBL5143588, “Discovery, Synthesis, and Biological Evaluation of Anaenamides C and D from a New Marine Cyanobacterium, Hormoscilla sp” (J Nat Prod, 2022)
Calls of active or inactive are those of the source. The calls are words filed in the database; no cut-off is given here.

Legend:
[1] = target: T1, Nuclear factor erythroid 2-related factor 2 (Homo sapiens) (UniProt Q16236); assay: Activation of Nrf2 in human HEK293-ARE-Luc cells assessed as fold activation of luciferase activity at 32 uM incubated for 24 hrs by ARE-luciferase reporter gene assay; format: cell-based; conditions: filed as activator
T1 sequence (whole entry): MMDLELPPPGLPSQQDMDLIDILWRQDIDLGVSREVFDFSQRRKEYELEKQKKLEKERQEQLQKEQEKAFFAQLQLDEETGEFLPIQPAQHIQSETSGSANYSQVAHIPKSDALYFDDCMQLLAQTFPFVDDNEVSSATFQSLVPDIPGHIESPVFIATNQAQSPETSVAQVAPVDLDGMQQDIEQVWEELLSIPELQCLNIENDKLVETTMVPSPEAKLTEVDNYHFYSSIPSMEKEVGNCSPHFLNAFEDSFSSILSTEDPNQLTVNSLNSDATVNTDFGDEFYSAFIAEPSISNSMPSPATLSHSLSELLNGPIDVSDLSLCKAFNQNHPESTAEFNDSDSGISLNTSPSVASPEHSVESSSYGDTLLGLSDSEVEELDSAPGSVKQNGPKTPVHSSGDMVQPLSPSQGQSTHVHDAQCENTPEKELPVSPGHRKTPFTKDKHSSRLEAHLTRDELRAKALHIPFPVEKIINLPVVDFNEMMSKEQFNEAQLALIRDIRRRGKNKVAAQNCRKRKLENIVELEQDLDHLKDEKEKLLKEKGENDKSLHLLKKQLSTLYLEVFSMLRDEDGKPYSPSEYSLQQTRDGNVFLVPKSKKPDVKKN

[2] = system: HCT-116; assay: Cytotoxicity against human HCT116 cells assessed as inhibition of cell viability incubated for 48 hrs by MTT assay; format: functional, cell-based; conditions: HCT-116, 48 h
[3] = target: T1, Nuclear factor erythroid 2-related factor 2 (Homo sapiens); assay: Activation of Nrf2 in human HEK293-ARE-Luc cells assessed as fold activation of luciferase activity at 100 uM incubated for 24 hrs by ARE-luciferase reporter gene assay; format: cell-based; conditions: filed as activator
[4] = system: HEK293; assay: Cytotoxicity against human HEK293-ARE-Luc cells assessed as reduction in cell viability at 10 to 100 uM incubated for 24 hrs by MTT assay; format: toxicity, cell-based; conditions: hek293, 24 h, dose 10-100 µM
[5] = target: T1, Nuclear factor erythroid 2-related factor 2 (Homo sapiens); assay: Activation of Nrf2 in human HEK293-ARE-Luc cells at 10 to 100 uM incubated for 24 hrs by ARE-luciferase reporter gene assay; format: cell-based; conditions: filed as activator, dose 10-100 µM
[6] = system: HEK293; assay: Cytotoxicity against human HEK293-ARE-Luc cells assessed as change in cell viability incubated for 24 hrs by MTT assay; format: toxicity, cell-based; conditions: hek293, 24 h

Structure (SMILES)	fold change (FC) [1]	IC50 [2] [µM]	other results
CCCCCc1cccc(OC)c1C(=O)O[C@@H](C(=O)O[C@@H](C)C(=O)NC/C=C(\Cl)C(N)=O)[C@@H](C)CC	15	42	
CCCCCc1cccc(OC)c1C(=O)O[C@@H](C(=O)O[C@@H](C)C(=O)NC/C=C(/Cl)C(=O)NC(c1ccccc1)(c1ccccc1)c1ccccc1)[C@@H](C)CC			fold change (FC) [3]: 6
CCCCCc1cccc(OC)c1C(=O)O[C@@H](C(=O)O[C@@H](C)C(=O)NC/C=C(\Cl)C(=O)NC(c1ccccc1)(c1ccccc1)c1ccccc1)[C@@H](C)CC			fold change (FC) [3]: 11
CCCCCc1cccc(OC)c1C(=O)O[C@@H](C(=O)O[C@@H](C)C(=O)NC/C=C(/Cl)C(N)=O)[C@@H](C)CC	17	32	
CCCCCc1cccc(OC)c1C(=O)O[C@@H](C(=O)O[C@@H](C)C(=O)NC/C=C(\Cl)C(=O)OC)[C@@H](C)CC		9	Activity [4]: Toxic; Activity [5]: Active
CC(C)(C)c1cc(O)ccc1O [E319]	29		Activity [6]: Non-Toxic
CCCCCc1cccc(OC)c1C(=O)O[C@@H](C(=O)O[C@@H](C)C(=O)NC/C=C(/Cl)C(=O)OC)[C@@H](C)CC		5	Activity [4]: Toxic; Activity [5]: Active
